Data reported in paper PMC9500072, “Topical application of an irreversible small molecule inhibitor of lysyl oxidases ameliorates skin scarring and fibrosis” (Nature Communications, 2022).
Several values for one entry are separate records, joined by “and”; a condition that tells them apart may be missing. Equal values may be shown once. Read-outs that look alike come from different tables or passages of the source.

How the values were obtained:
Assay type in all cases: biochemical
Recombinant human LOXL1 = biological target: T1, Recombinant human LOXL1 (Homo sapiens, UniProt Q08397); assay: Amplex Red oxidation assay, LOXL1 inhibition
T1 construct: made in house
T1 sequence (Q08397 96-574): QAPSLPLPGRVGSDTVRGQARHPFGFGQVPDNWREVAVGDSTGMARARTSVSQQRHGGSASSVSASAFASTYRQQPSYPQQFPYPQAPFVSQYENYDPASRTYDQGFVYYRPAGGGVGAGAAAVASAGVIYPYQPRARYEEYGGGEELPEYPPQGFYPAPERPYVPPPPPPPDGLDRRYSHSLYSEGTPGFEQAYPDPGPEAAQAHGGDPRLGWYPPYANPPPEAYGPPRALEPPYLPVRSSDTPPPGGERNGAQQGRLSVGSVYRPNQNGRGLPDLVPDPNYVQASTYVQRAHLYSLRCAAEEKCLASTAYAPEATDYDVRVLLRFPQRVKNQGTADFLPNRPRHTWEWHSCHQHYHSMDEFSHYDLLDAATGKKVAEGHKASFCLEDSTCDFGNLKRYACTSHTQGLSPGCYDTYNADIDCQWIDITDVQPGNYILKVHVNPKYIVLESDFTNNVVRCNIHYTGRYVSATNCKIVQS
Protocol: (§1) The measurement of the enzymatic activity of all lysyl oxidase family members was based on the detection of hydrogen peroxide with an Amplex-Red oxidation assay, as previously described; miniaturized in 384 well formats, with the appropriate combination of substrate and assay buffer for each individual enzyme. After a 30 min pre-incubation of the enzyme at 37 °C with the test compound (or with different incubation times for the time-dependency assay), one volume of reaction mixture containing 120 μM Amplex Red (AR) (Life Technologies), 1.5 U/mL horseradish peroxidase (HRP) (Sigma-Aldrich) and the specific substrate was added to each sample. The relative fluorescence units (RFU) were then measured every 2.5 min for 30 min at 37 °C, excitation 565 nm and emission 590, on a BMG Clariostar Microplate Reader. All the substrates were used at concentrations corresponding to their Km towards the corresponding enzyme, or with a range of different concentrations for the substrate competition experiments.
(§2) Lysyl oxidases assay buffer contained 1.2 M urea, 50 mM sodium borate buffer, pH 8.2 and 100 µM β-aminoproprionitrile (BAPN, Sigma-Aldrich) was used for low control.
(§3) Recombinant human LOXL1 was expressed and purified from cDNA (GeneArt) and 10 mM putrescine was used as substrate. Recombinant human and mouse LOXL2 (R&D Systems) were challenged with 5 mM putrescine (Sigma-Aldrich) as the substrate. Rat and dog recombinant LOXL2 were amplified and purified in house from HEK-293 clones kindly provided by Dr. Fernando Rodríguez Pascual, Madrid University, and used in the same conditions as for the human form. 2 mM putrescine was used as the substrate for recombinant human LOXL3 (R&D Systems) and LOXL4 (Dr. Fernando Rodríguez Pascual, university of Madrid, Spain) assays.

DAO = biological target: T2, DAO (Homo sapiens, UniProt P19801); assay: Amine oxidase inhibition profile, DAO
T2 sequence (P19801 20-751): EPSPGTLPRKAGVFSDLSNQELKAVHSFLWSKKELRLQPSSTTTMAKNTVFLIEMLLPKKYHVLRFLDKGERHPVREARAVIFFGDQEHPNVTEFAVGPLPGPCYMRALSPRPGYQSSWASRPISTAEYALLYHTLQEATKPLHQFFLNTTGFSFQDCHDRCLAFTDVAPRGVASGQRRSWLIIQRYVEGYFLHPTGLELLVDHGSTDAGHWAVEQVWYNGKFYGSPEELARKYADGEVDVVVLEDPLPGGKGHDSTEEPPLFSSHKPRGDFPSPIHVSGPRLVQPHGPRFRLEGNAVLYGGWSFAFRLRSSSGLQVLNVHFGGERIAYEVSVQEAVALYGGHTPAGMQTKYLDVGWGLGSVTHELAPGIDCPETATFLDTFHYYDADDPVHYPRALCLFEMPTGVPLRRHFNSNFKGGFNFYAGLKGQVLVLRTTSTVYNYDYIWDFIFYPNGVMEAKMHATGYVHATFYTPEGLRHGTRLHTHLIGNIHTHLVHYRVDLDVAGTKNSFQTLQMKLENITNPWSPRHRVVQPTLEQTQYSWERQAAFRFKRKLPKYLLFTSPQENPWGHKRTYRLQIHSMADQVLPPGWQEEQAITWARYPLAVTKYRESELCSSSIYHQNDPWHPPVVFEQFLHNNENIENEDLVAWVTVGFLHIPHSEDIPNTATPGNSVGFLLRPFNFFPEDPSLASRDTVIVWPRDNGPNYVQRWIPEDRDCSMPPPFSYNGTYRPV
Description: Supplem entary Materi als:
Supplementary Table S1: Amine oxidase inhibition profile of PXS -4787, PXS-6302 and
Supplementary Table S2: Perm eability profile of PXS -6302.

Human recombinant LOXL2 = biological target: T3, Human recombinant LOXL2 (Homo sapiens, UniProt Q9Y4K0); assay: Amplex Red oxidation assay, LOXL2 inhibition
T3 construct: purchased R&D Systems
T3 sequence (Q9Y4K0 26-774): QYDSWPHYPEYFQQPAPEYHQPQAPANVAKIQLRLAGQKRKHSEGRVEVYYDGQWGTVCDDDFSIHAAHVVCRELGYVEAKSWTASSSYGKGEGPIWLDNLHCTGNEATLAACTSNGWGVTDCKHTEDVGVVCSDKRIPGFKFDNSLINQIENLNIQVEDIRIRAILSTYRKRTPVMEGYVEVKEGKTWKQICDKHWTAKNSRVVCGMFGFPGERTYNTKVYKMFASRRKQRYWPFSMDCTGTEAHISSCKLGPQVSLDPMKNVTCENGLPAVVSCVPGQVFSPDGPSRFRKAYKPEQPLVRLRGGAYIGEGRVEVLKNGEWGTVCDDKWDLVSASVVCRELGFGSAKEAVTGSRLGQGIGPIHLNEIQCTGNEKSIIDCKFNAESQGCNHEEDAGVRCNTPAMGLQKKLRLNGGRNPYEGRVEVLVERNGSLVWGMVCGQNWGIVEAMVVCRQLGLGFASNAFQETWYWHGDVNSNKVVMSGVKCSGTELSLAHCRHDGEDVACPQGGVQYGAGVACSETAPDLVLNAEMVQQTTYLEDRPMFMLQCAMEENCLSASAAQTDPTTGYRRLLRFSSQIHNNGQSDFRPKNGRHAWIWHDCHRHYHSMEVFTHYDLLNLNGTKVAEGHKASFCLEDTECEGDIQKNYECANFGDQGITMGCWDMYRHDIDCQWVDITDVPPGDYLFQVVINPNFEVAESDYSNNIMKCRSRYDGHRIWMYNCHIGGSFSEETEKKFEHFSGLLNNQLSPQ
Protocol: For compound oxidation assays, the amount of hydrogen peroxide generated at a single concentration (30 µM) of compound relative to DMSO was measured.
as §1, §2, §3

[1] = 30 min pre-incubation, read-out: rh LOXL1 IC50
[2] = 30 min pre-incubation, read-out: LOXL2 IC50
[3] = log conc -4.5229, read-out: Fig 2A inhibition (mean)
[4] = log conc -5, read-out: Fig 2A inhibition (mean)
[5] = log conc -5.4771, read-out: Fig 2A inhibition (mean)
[6] = log conc -5.9542, read-out: Fig 2A inhibition (mean)
[7] = log conc -6.4313, read-out: Fig 2A inhibition (mean)
[8] = log conc -6.9083, read-out: Fig 2A inhibition (mean)
[9] = log conc -7.3851, read-out: Fig 2A inhibition (mean)
[10] = log conc -7.8633, read-out: Fig 2A inhibition (mean)
[11] = log conc -8.3372, read-out: Fig 2A inhibition (mean)
[12] = log conc -8.8239, read-out: Fig 2A inhibition (mean)
[13] = log conc -9.301, read-out: Fig 2A inhibition (mean)
[14] = read-out: Human Recombinant LOXL1 pIC50±SD (converted)

Question: Which results are given for `N#CCCN` [BAPN, β-aminoproprionitrile, reference compound]?
Answer: Human Recombinant LOXL1 pIC50±SD (Recombinant human LOXL1): 5.6 ± 0.1; IC50 (Recombinant human LOXL1; [1]): 2.46 µM; Recombinant DAO pIC50 (DAO): < 4.5; IC50 (DAO; read-out: Recombinant DAO IC50): > 30 µM; Human Recombinant LOXL2 pIC50±SD (Human recombinant LOXL2): 6.4 ± 0.1; IC50 (Human recombinant LOXL2; [2]): 0.39 µM

Question: With `NC/C=C(\F)CS(=O)(=O)c1ccccc1` [PXS-4787] as the compound, how does the IC50 (Recombinant human LOXL1; [1]) read?
Answer: The IC50 was 3 µM and 3.23 µM.

Question: And the inhibition at 30 µM (Recombinant human LOXL1; [3])?
Answer: Its inhibition at 30 µM is 97.5%.

Question: What about the inhibition at 10 µM (Recombinant human LOXL1; [4]) of the same compound?
Answer: Its inhibition at 10 µM is 84.7%.

Question: And the inhibition at 3.333 µM (Recombinant human LOXL1; [5])?
Answer: Its inhibition at 3.333 µM is 56.4%.

Question: And the inhibition at 1.111 µM (Recombinant human LOXL1; [6])?
Answer: The inhibition at 1.111 µM was 26.9%.

Question: What about the inhibition at 0.3704 µM (Recombinant human LOXL1; [7]) of the same compound?
Answer: Its inhibition at 0.3704 µM is 13.6%.

Question: And the inhibition at 0.1235 µM (Recombinant human LOXL1; [8])?
Answer: Its inhibition at 0.1235 µM is 6.04%.

Question: What about the inhibition at 0.0412 µM (Recombinant human LOXL1; [9]) of the same compound?
Answer: The inhibition at 0.0412 µM was 2.88%.

Question: And the inhibition at 0.0137 µM (Recombinant human LOXL1; [10])?
Answer: The inhibition at 0.0137 µM was 3.87%.

Question: What about the inhibition at 0.0046 µM (Recombinant human LOXL1; [11]) of the same compound?
Answer: The inhibition at 0.0046 µM was 0.808%.

Question: And the inhibition at […] (Recombinant human LOXL1; [12])?
Answer: Its inhibition at […] is -1.89%.

Question: What about the inhibition at 0.0005 µM (Recombinant human LOXL1; [13]) of the same compound?
Answer: Its inhibition at 0.0005 µM is 1.05%.

Question: What about the IC50 (Recombinant human LOXL1; [14]) of the same compound?
Answer: Its IC50 is 3.16 µM.

Question: And the IC50 (DAO; read-out: Recombinant DAO IC50)?
Answer: The IC50 was > 100 µM.

Question: What about the IC50 (Human recombinant LOXL2; [2]) of the same compound?
Answer: Its IC50 is 0.6 µM.

Question: What about the inhibition at 30 µM (Human recombinant LOXL2; [3]) of the same compound?
Answer: Its inhibition at 30 µM is 98.4%.

Question: And the inhibition at 10 µM (Human recombinant LOXL2; [4])?
Answer: The inhibition at 10 µM was 95.6%.

Question: And the inhibition at 3.333 µM (Human recombinant LOXL2; [5])?
Answer: Its inhibition at 3.333 µM is 87.6%.

Question: And the inhibition at 1.111 µM (Human recombinant LOXL2; [6])?
Answer: Its inhibition at 1.111 µM is 67.7%.

Question: What about the inhibition at 0.3704 µM (Human recombinant LOXL2; [7]) of the same compound?
Answer: The inhibition at 0.3704 µM was 40.3%.

Question: And the inhibition at 0.1235 µM (Human recombinant LOXL2; [8])?
Answer: Its inhibition at 0.1235 µM is 18.8%.

Question: And the inhibition at 0.0412 µM (Human recombinant LOXL2; [9])?
Answer: The inhibition at 0.0412 µM was 9.34%.

Question: And the inhibition at 0.0137 µM (Human recombinant LOXL2; [10])?
Answer: Its inhibition at 0.0137 µM is 2.56%.

Question: And the inhibition at 0.0046 µM (Human recombinant LOXL2; [11])?
Answer: The inhibition at 0.0046 µM was 0.119%.

Question: What about the inhibition at […] (Human recombinant LOXL2; [12]) of the same compound?
Answer: The inhibition at […] was -0.297%.

Question: What about the inhibition at 0.0005 µM (Human recombinant LOXL2; [13]) of the same compound?
Answer: The inhibition at 0.0005 µM was -1.19%.

Question: What about the IC50 (Human recombinant LOXL2; read-out: Human Recombinant LOXL2 pIC50±SD (converted)) of the same compound?
Answer: Its IC50 is 0.631 µM.

Question: With `NC/C=C(\F)C(F)(F)S(=O)(=O)c1ccccc1` [PXS-6302] as the compound, how does the IC50 (Recombinant human LOXL1; [1]) read?
Answer: The IC50 was 3.42 µM.

Question: And the IC50 (Recombinant human LOXL1; [14])?
Answer: The IC50 was 3.16 µM.

Question: What about the IC50 (DAO) of the same compound?
Answer: The IC50 was > 30 µM.

Question: And the “Human Recombinant LOXL2 pIC50±SD” value (Human recombinant LOXL2)?
Answer: The value was 6.4 ± 0.2.

Question: What about the IC50 (Human recombinant LOXL2; [2]) of the same compound?
Answer: Its IC50 is 0.43 µM.
